From paper PMC9616902, “Chemical space docking enables large-scale structure-based virtual screening to discover ROCK1 kinase inhibitors” (Nature Communications, 2022)
Like-named read-outs stand apart in the source and are kept apart here.

Target: T1, Human ROCK1 protein (amino acids 1–477) (Homo sapiens, UniProt Q13464)
T1 construct: purchased Carna Biosciences 01-109
Test: ROCK1 HTRF KinEASE-STK S2 biochemical activity assay
Conditions: for S0 / Sinf / nHill: curve fit parameter; for Ki: average +/- standard deviation of three measurements, 3 μM ATP
Description: Human ROCK1 protein (amino acids 1–477 from accession number NP_05397.1) was purchased from Carna Biosciences (Cat# 01-109). This sequence contains the catalytic domain of the protein, and the biochemical activity was measured by the HTRF KinEASE-STK S2 Kit (Cisbio, Cat# 62ST2PEB) according to the manufacturer’s protocol. To determine the IC50, compounds were first dispensed by the Echo Liquid Handler (Labcyte) into white 384-well plates (PerkinElmer, Cat# 6008289). A total of 3 μL of 2x ROCK1 enzyme solution was added to the compounds, followed by a 10 min incubation at room temperature. Then, 2x ATP and STK S2 peptide solution were added to initiate the one-hour enzyme reaction at room temperature. The final condition of the reaction was 1.5 nM Rock1, 3 μM ATP, 0.5 μM STK S2 peptide in 50 mM HEPES pH7.2, 10 mM MgCl2, 0.1% BGG, 0.005% Brij-35, 1 mM DTT. The reaction was quenched by adding 6 μL of the detection mixture that contained Streptavidin XL665 and STK Antibody-Cryptate (Cisbio) and incubated for 1 hour at room temperature. The HTRF (665 nm/620 nm) signal was read on the PHERAstar reader (BMG Labtech). All measurements were done in triplicate.

[1] = 2021-01-17 ROCK1 HTRF (n=1) 665/620, no unit printed (values equal the uM IC50 of the 7th table x 1e-6), read-out: qAC50
[2] = 2021-01-17 ROCK1 HTRF (n=1) 665/620 Activity [%]
[3] = 2021-01-18 ROCK1 (n=3) 665/620, no unit printed (values equal the uM IC50 of the 7th table x 1e-6), read-out: qAC50
[4] = 2021-01-18 ROCK1 (n=3) 665/620 Activity [%]
[5] = 2021-01-18 ROCK1 HTRF (n=2) 665/620, no unit printed (values equal the uM IC50 of the 7th table x 1e-6), read-out: qAC50
[6] = 2021-01-18 ROCK1 HTRF (n=2) 665/620 Activity [%]
[7] = Supplementary Figure 4 source data, unit inferred, read-out: hit IC50

T1 sequence (Q13464 1-477): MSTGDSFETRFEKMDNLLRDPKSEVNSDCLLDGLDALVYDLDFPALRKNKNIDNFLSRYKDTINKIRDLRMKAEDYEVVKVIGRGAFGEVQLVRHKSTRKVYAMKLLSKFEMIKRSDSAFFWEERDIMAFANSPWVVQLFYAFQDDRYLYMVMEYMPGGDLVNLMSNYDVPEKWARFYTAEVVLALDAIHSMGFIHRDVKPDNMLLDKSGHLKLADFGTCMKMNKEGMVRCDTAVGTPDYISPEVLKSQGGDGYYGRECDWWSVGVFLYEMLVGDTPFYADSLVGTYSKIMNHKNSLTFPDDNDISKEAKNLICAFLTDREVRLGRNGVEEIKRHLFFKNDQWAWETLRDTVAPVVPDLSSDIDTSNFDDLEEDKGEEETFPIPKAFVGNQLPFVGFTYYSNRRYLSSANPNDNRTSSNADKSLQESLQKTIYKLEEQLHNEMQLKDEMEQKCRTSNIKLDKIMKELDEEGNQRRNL

Compound	IC50 [1] [µM]	S0 [2] [%]	Sinf [2] [%]	nHill (2021-01-17 ROCK1 HTRF (n=1))	IC50 [3] [µM]	S0 [4] [%]	Sinf [4] [%]	nHill (2021-01-18 ROCK1 (n=3))	IC50 [5] [µM]	S0 [6] [%]	Sinf [6] [%]	nHill (2021-01-18 ROCK1 HTRF (n=2))	IC50 [7] [µM]	Ki [nM]
CC(Cc1ccc(F)cc1F)NC(=O)c1ccc(-c2cn[nH]c2)cc1 (racemic) [Compound 3]	0.22	1.865	-99.1673	1.058	0.121	-2.06	-95.7048	1.245	0.136	-2.159	-97.6218	1.01	0.159	76 ± 26
O=C(NCC1(Cc2ccccc2)CC1)c1ccc(-c2cn[nH]c2)cc1 [Compound 4]	0.197	-5.337	-98.9033	1.05	0.147	-5.138	-96.0861	1.483	0.15	-6.676	-95.9487	1.644	0.165	79 ± 13
COCc1cccc(CC(=O)Nc2ccc(-c3cn[nH]c3)cc2)c1 [Compound 1]	0.0793	-0.5714	-100.2	1.046	0.0806	-1.802	-99.1388	1.109	0.0814	-5.692	-99.1049	1.139	0.08	38 ± 1
CC(NC(=O)c1ccc(-c2cn[nH]c2)cc1)C1CC1c1ccccc1 (mixture of isomers) [Compound 6]	0.248	0.4458	-96.8224	1.0903	0.14	-2.655	-93.6754	1.532	0.157	3.31	-94.0095	1.2951	0.182	87 ± 28
CSc1cccc(F)c1CNC(=O)c1ccc(-c2cn[nH]c2)cc1 [Compound 5]	0.173	3.131	-99.2397	1.067	0.171	-0.4047	-100.142	0.9507	0.17	3.5105	-98.3773	1.136	0.171	82 ± 1
CC(CNC(=O)c1ccc(-c2cn[nH]c2)cc1)N1CCc2ccccc21 (stereo not drawn) [Compound 2]	0.108	-2.075	-98.9577	1.042	0.101	1.158	-99.9466	0.9439	0.1	-0.7898	-98.8967	0.9788	0.103	49 ± 2
